The text below walks through data of PubChem BioAssay (NCI).

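All cell lines were grown in 96-well plates and treated with compound for 48 hours. GI50 is the concentration that inhibits growth by half. The concentration for full growth arrest is given as TGI.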

Among the test systems are OVCAR-4 ovarian; SK-MEL-5 melanoma; U251 CNS; IGROV1 ovarian; HCT-15 colon; A498 renal; OVCAR-3 ovarian; SNB-75 CNS; HCC-2998 colon; HL-60(TB) leukemia.
Holding throughout (test): NCI-60 cell line screen, 48 h

Take `Cc1cc(Nc2nc(SCc3ccc(C(=O)Nc4ccc(F)cc4N)cc3)nn3cccc23)n[nH]1`: the GI50 in the assay on OVCAR-4 ovarian was 1.66 µM; in the assay on SK-MEL-5 melanoma, 0.334 µM; with U251 CNS, 0.343 µM; in the assay with IGROV1 ovarian, 0.558 µM; in the assay with HCT-15 colon, 0.424 µM; with A498 renal it was 0.623 µM. Besides, the GI50 with OVCAR-3 ovarian was 0.202 µM; in the assay with SNB-75 CNS it was 0.198 µM; in the assay on HCC-2998 colon it was 0.677 µM; in the assay with HL-60(TB) leukemia, 0.268 µM. Further, the TGI in the assay with OVCAR-4 ovarian is 77.7 µM; with SK-MEL-5 melanoma, 2.43 µM; in the assay on U251 CNS, above 100 µM; in the assay with IGROV1 ovarian, 62 µM; in the assay with HCT-15 colon, above 100 µM; with A498 renal it was 5.61 µM. The TGI in the assay on OVCAR-3 ovarian came to 49.1 µM; with SNB-75 CNS, 35.4 µM; with HCC-2998 colon, 11.5 µM; with HL-60(TB) leukemia, 0.785 µM.

For `CCCCCCCCCCN=C(c1ccc(N(C)C)cc1)c1ccc(N(C)C)cc1`, the GI50 in the assay on OVCAR-4 ovarian is 3.29 µM; with SK-MEL-5 melanoma it was 0.67 µM; with U251 CNS, 0.579 µM; in the assay on IGROV1 ovarian it was 0.917 µM; in the assay on HCT-15 colon, 0.365 µM; with A498 renal, 0.457 µM. For the same molecule, the GI50 is 0.428 µM with OVCAR-3 ovarian, 0.4 µM in the assay on SNB-75 CNS, 5.07 µM with HCC-2998 colon and 0.954 µM with HL-60(TB) leukemia. The TGI in the assay with OVCAR-4 ovarian was above 83.6 µM; in the assay with SK-MEL-5 melanoma, 18.4 µM; in the assay on U251 CNS it was 33.2 µM; in the assay on IGROV1 ovarian it was above 100 µM; with HCT-15 colon, above 100 µM; in the assay with A498 renal it was 6.33 µM. The TGI with OVCAR-3 ovarian was above 24.9 µM; with SNB-75 CNS, 6.69 µM; in the assay with HCC-2998 colon, above 88.6 µM; in the assay with HL-60(TB) leukemia, 18.9 µM.

On to `CC(=O)OCC1OC(n2cc([N+](=O)[O-])c(=O)[nH]c2=O)C(OC(C)=O)C(OC(C)=O)C1OC(C)=O` (stereo not given), for which the TGI with OVCAR-4 ovarian, in the assay on SK-MEL-5 melanoma, in the assay with U251 CNS, in the assay on IGROV1 ovarian, in the assay on HCT-15 colon and in the assay on A498 renal was above 100 µM in each case. The TGI in the assay with OVCAR-3 ovarian, in the assay with SNB-75 CNS, with HCC-2998 colon and with HL-60(TB) leukemia was above 100 µM each time.

Take `O=C(/C=C/c1ccccc1)CC(c1ccccc1)N1CCOCC1` (stereo not given): the GI50 is 9.68 µM in the assay with OVCAR-4 ovarian; 4.87 µM in the assay on SK-MEL-5 melanoma; 2.44 µM in the assay on U251 CNS; 2.14 µM with IGROV1 ovarian; 1.96 µM in the assay on HCT-15 colon; 12.9 µM with A498 renal. The GI50 was 3.71 µM in the assay with OVCAR-3 ovarian, 12.5 µM in the assay on SNB-75 CNS, 1.9 µM in the assay on HCC-2998 colon and 3.68 µM with HL-60(TB) leukemia. The TGI in the assay on OVCAR-4 ovarian stood at 23.3 µM; in the assay with SK-MEL-5 melanoma, 17.5 µM; in the assay with U251 CNS it was 5.21 µM; with IGROV1 ovarian, 5.78 µM; in the assay on HCT-15 colon, 5.52 µM; with A498 renal, 26.2 µM. The TGI was 11.6 µM with OVCAR-3 ovarian, 27.7 µM in the assay on SNB-75 CNS, 3.54 µM in the assay with HCC-2998 colon and 18.1 µM in the assay on HL-60(TB) leukemia.

With `Cc1cc2c(Br)cc(Br)c(O)c2nc1C(=O)c1ccccc1`, the TGI is above 100 µM with OVCAR-4 ovarian; 29.8 µM in the assay on SK-MEL-5 melanoma; above 71.3 µM in the assay on U251 CNS; above 100 µM in the assay with IGROV1 ovarian; above 45.5 µM in the assay on HCT-15 colon; above 100 µM with A498 renal. In addition, the TGI in the assay with OVCAR-3 ovarian was above 79 µM; in the assay on SNB-75 CNS it was above 100 µM; in the assay with HCC-2998 colon it was above 68.2 µM; with HL-60(TB) leukemia, 8.11 µM.

In the case of `COc1c(Br)cc(Br)c(OC)c1-c1[nH]c(Br)c(Br)c1Br`, the TGI was 16.3 µM in the assay with OVCAR-4 ovarian; 20.5 µM in the assay on SK-MEL-5 melanoma; 25.7 µM in the assay on U251 CNS; 20.6 µM in the assay with IGROV1 ovarian; 20.1 µM in the assay on HCT-15 colon; 26 µM with A498 renal. In addition, the TGI in the assay with OVCAR-3 ovarian was found to be 14.3 µM; in the assay with SNB-75 CNS it was 17.6 µM; with HCC-2998 colon it was 19.2 µM; with HL-60(TB) leukemia it was 25.1 µM.

For the molecule `O=C1C=CC(=O)N1Nc1ccc([N+](=O)[O-])cc1[N+](=O)[O-]`, the TGI with OVCAR-4 ovarian was above 79.9 µM; in the assay on SK-MEL-5 melanoma, above 100 µM; with U251 CNS it was above 100 µM; in the assay on IGROV1 ovarian it was above 100 µM; in the assay with HCT-15 colon, above 100 µM; in the assay with A498 renal, above 100 µM. In addition, the TGI with OVCAR-3 ovarian was above 100 µM; with SNB-75 CNS it was above 100 µM; in the assay with HCC-2998 colon it was above 100 µM; in the assay on HL-60(TB) leukemia, above 51.5 µM.

On to `O=C1C=C(O)c2[nH]c(=O)ccc2C1=O`, for which the TGI in the assay with OVCAR-4 ovarian was 82.5 µM; in the assay on SK-MEL-5 melanoma, above 100 µM; in the assay with U251 CNS, above 100 µM; in the assay on IGROV1 ovarian it was above 100 µM; in the assay with HCT-15 colon it was above 100 µM; in the assay with A498 renal, above 100 µM. Also, the TGI in the assay with OVCAR-3 ovarian, in the assay on SNB-75 CNS, with HCC-2998 colon and with HL-60(TB) leukemia was above 100 µM each time.

For the molecule `Cc1c(C(=O)CSc2nc3ccccc3c(=O)n2-c2ccccc2)c(=O)n(-c2ccccc2)n1C`, the TGI in the assay on OVCAR-4 ovarian was above 100 µM; with SK-MEL-5 melanoma it was above 100 µM; in the assay with U251 CNS it was 69.2 µM; in the assay on IGROV1 ovarian, above 100 µM; in the assay with HCT-15 colon it was above 100 µM; in the assay with A498 renal, above 100 µM. Besides, the TGI is 73.5 µM in the assay on OVCAR-3 ovarian, above 100 µM with SNB-75 CNS, above 100 µM in the assay on HCC-2998 colon and above 100 µM in the assay on HL-60(TB) leukemia.

`COc1ccc(Nc2nc3ccccc3nc2-c2cccs2)cc1`: the TGI in the assay on OVCAR-4 ovarian, in the assay with SK-MEL-5 melanoma, with U251 CNS, with IGROV1 ovarian, in the assay with HCT-15 colon and in the assay with A498 renal was above 100 µM in each case. The TGI with OVCAR-3 ovarian is above 100 µM; in the assay on SNB-75 CNS it was 82.2 µM; in the assay with HCC-2998 colon it was above 100 µM; in the assay with HL-60(TB) leukemia, above 100 µM.

As to `OC(c1ccc(Br)cc1)(c1cccs1)C1CC1` (stereo not given), the TGI in the assay on OVCAR-4 ovarian was found to be 66.7 µM; in the assay on SK-MEL-5 melanoma, 33 µM; in the assay with U251 CNS, 35.4 µM; with IGROV1 ovarian it was 42.9 µM; in the assay with HCT-15 colon, 65.7 µM; with A498 renal it was 45.2 µM. Also, the TGI in the assay with OVCAR-3 ovarian is 35.9 µM; in the assay with SNB-75 CNS, 66.2 µM; in the assay with HCC-2998 colon, 55.6 µM; in the assay on HL-60(TB) leukemia, 52.7 µM.
